Laboratory results from US20210347805A1, “AZITHROMYCIN DERIVATIVES CONTAINING A PHOSPHONIUM ION AS ANTICANCER AGENTS” (RISING TIDE FOUNDATION, priority 2018, published 2021).

tested on: MDA-231 cancer cells; experiment: Inhibition of proliferation assay: cell confluence (IncuCyte live cell imaging); type: cell-based; details: MDA-231 cells; compound at 10 μM; IncuCyte imaging over 4-5 d
Text: The confluence value is a surrogate for cell proliferation and growth. The value is expressed as a percent confluence, which represents the fraction of culture dish-surface that is occupied by cells. As the number of cells in the dish increases over time due to proliferation, so will their coverage of that surface increase. Expansion of the cell population on the cell culture-dish surface and confluence have mostly a linear relationship until the cells on the plate surface begin to reach saturation or maximum density. Confluence is determined based on image analysis. Image based software can identify objects in the image field base on changes to pixel density in a grey scale image. The software can then assign a mask to those pixels within the object. Objects can be ‘gated’ out based on size and shape. To determine cell confluence, images of cells are first masked as objects. The surface area of the image that is masked is measured and compared to the total surface area of the culture dish surface to obtain a percent confluence. MDA-231 cancer cells were obtained from ATCC. Cells were cultured in Dulbecco's Modified Eagle Medium (DMEM) supplemented with 10% Fetal Bovine Serum (FBS), 2 mM Glutamax, 1 mM Non Essential Amino Acid (NEAA) solution and 1 mM sodium pyruvate. […] Final DMSO concentrations were ≤0.1%. Images were acquired with an IncuCyte Live Cell Imaging microscopy (Essen Bioscience) at every 3 h under cell culture conditions with 10× objective over 4-5 d. Cell confluence was calculated from one field of view per well using the IncuCyte in-built algorithm. Relative confluence values were obtained by normalising each value to the time zero value in each sample.

Row | SMILES | % Confluence
1 | CC[C@H]1OC(=O)[C@H](C)[C@@H](O[C@H]2C[C@@](C)(OC)[C@@H](O)[C@H](C)O2)[C@H](C)[C@@H](O[C@@H]2O[C@H](C)C[C@H](N(C)C)[C@H]2O)[C@](C)(O)C[C@@H](C)CN(C(=O)CCCCCC[P+](c2cc(C)cc(C)c2)(c2cc(C)cc(C)c2)c2cnn(C(C)C)c2)[C@H](C)[C@@H](O)[C@]1(C)O.[Cl-] [Example 6, {7-[(2R,3S,4R,5R,8R,10R,11R,12S,13S,14R)-11-{[(2S,3R,4S,6R)-4-(dimethylamino)-3-hydroxy-6-methyloxan-2-yl]oxy}-2-ethyl-3,4,10-trihydroxy-13-{[(2R,4R,5S,6S)-5-hydroxy-4-methoxy-4,6-dimethyloxan-2-yl]oxy}-3,5,8,10,12,14-hexamethyl-15-oxo-1-oxa-6-azacyclopentadecan-6-yl]-7-oxoheptyl}bis(3,5-dimethylphenyl)[1-(propan-2-yl)-1H-pyrazol-4-yl]phosphonium chloride] | 15.3%
2 | CC[C@H]1OC(=O)[C@H](C)[C@@H](O[C@H]2C[C@@](C)(OC)[C@@H](O)[C@H](C)O2)[C@H](C)[C@@H](O[C@@H]2O[C@H](C)C[C@H](N(C)C)[C@H]2O)[C@](C)(O)C[C@@H](C)CN(C(=O)CCCCCCC[P+](c2cc(C)cc(C)c2)(c2cc(C)cc(C)c2)c2cnn(C(C)C)c2)[C@H](C)[C@@H](O)[C@]1(C)O.[Cl-] [Example 5, {8-[(2R,3S,4R,5R,8R,10R,11R,12S,13S,14R)-11-{[(2S,3R,4S,6R)-4-(dimethylamino)-3-hydroxy-6-methyloxan-2-yl]oxy}-2-ethyl-3,4,10-trihydroxy-13-{[(2R,4R,5S,6S)-5-hydroxy-4-methoxy-4,6-dimethyloxan-2-yl]oxy}-3,5,8,10,12,14-hexamethyl-15-oxo-1-oxa-6-azacyclopentadecan-6-yl]-8-oxooctyl}bis(3,5-dimethylphenyl)[1-(propan-2-yl)-1H-pyrazol-4-yl]phosphonium chloride] | 23.1%
3 | CC[C@H]1OC(=O)[C@H](C)[C@@H](O[C@H]2C[C@@](C)(OC)[C@@H](O)[C@H](C)O2)[C@H](C)[C@@H](O[C@@H]2O[C@H](C)C[C@H](N(C)C)[C@H]2O)[C@](C)(O)C[C@@H](C)CN(C(=O)CCCCCCCCCCC[P+](c2ccccc2)(c2ccccc2)c2cnn(C3CCC3)c2)[C@H](C)[C@@H](O)[C@]1(C)O.[Cl-] [Example 4, (1-cyclobutyl-1H-pyrazol-4-yl)({12-[(2R,3S,4R,5R,8R,10R,11R,12S,13S,14R)-11-{[(2S,3R,4S,6R)-4-(dimethylamino)-3-hydroxy-6-methyloxan-2-yl]oxy}-2-ethyl-3,4,10-trihydroxy-13-{[(2R,4R,5S,6S)-5-hydroxy-4-methoxy-4,6-dimethyloxan-2-yl]oxy}-3,5,8,10,12,14-hexamethyl-15-oxo-1-oxa-6-azacyclopentadecan-6-yl]-12-oxododecyl})diphenylphosphonium chloride] | 4.4%
4 | CC[C@H]1OC(=O)[C@H](C)[C@@H](O[C@H]2C[C@@](C)(OC)[C@@H](O)[C@H](C)O2)[C@H](C)[C@@H](O[C@@H]2O[C@H](C)C[C@H](N(C)C)[C@H]2O)[C@](C)(O)C[C@@H](C)CN(C(=O)CCCCCCCCCCCCC[P+](c2ccccc2)(c2ccccc2)C2CCOCC2)[C@H](C)[C@@H](O)[C@]1(C)O.[Cl-] [Example 8, {14-[(2R,3S,4R,5R,8R,10R,11R,12S,13S,14R)-11-{[(2S,3R,4S,6R)-4-(dimethylamino)-3-hydroxy-6-methyloxan-2-yl]oxy}-2-ethyl-3,4,10-trihydroxy-13-{[(2R,4R,5S,6S)-5-hydroxy-4-methoxy-4,6-dimethyloxan-2-yl]oxy}-3,5,8,10,12,14-hexamethyl-15-oxo-1-oxa-6-azacyclopentadecan-6-yl]-14-oxotetradecyl}(oxan-4-yl)diphenylphosphonium chloride] | 5.5%
5 | CC[C@H]1OC(=O)[C@H](C)[C@@H](O[C@H]2C[C@@](C)(OC)[C@@H](O)[C@H](C)O2)[C@H](C)[C@@H](O[C@@H]2O[C@H](C)C[C@H](N(C)C)[C@H]2O)[C@](C)(O)C[C@@H](C)CN(C(=O)CCCCCCCCCCC[P+](c2ccccc2)(c2ccccc2)c2cnn(C(C)(C)C)c2)[C@H](C)[C@@H](O)[C@]1(C)O [Example 3, (1-tert-butyl-1H-pyrazol-4-yl)({12-[(2R,3S,4R,5R,8R,10R,11R,12S,13S,14R)-11-{[(2S,3R,4S,6R)-4-(dimethylamino)-3-hydroxy-6-methyloxan-2-yl]oxy}-2-ethyl-3,4,10-trihydroxy-13-{[(2R,4R,5S,6S)-5-hydroxy-4-methoxy-4,6-dimethyloxan-2-yl]oxy}-3,5,8,10,12,14-hexamethyl-15-oxo-1-oxa-6-azacyclopentadecan-6-yl]-12-oxododecyl})diphenylphosphonium chloride] | 4%
6 | CC[C@H]1OC(=O)[C@H](C)[C@@H](O[C@H]2C[C@@](C)(OC)[C@@H](O)[C@H](C)O2)[C@H](C)[C@@H](O[C@@H]2O[C@H](C)C[C@H](N(C)C)[C@H]2O)[C@](C)(O)C[C@@H](C)CN(C)[C@H](C)[C@@H](O)[C@]1(C)O [Azithromycin] | 99.1%
7 | CC[C@H]1OC(=O)[C@H](C)[C@@H](O[C@H]2C[C@@](C)(OC)[C@@H](O)[C@H](C)O2)[C@H](C)[C@@H](O[C@@H]2O[C@H](C)C[C@H](N(C)C)[C@H]2O)[C@](C)(O)C[C@@H](C)CN(C(=O)CCCCCCCCCCCC[P+](C2CCCC2)(C2CCCC2)C2CCCC2)[C@H](C)[C@@H](O)[C@]1(C)O.[Cl-] [Example 9, tricyclopentyl({13-[(2R,3S,4R,5R,8R,10R,11R,12S,13S,14R)-11-{[(2S,3R,4S,6R)-4-(dimethylamino)-3-hydroxy-6-methyloxan-2-yl]oxy}-2-ethyl-3,4,10-trihydroxy-13-{[(2R,4R,5S,6S)-5-hydroxy-4-methoxy-4,6-dimethyloxan-2-yl]oxy}-3,5,8,10,12,14-hexamethyl-15-oxo-1-oxa-6-azacyclopentadecan-6-yl]-13-oxotridecyl})phosphonium chloride] | 4%
8 | CC[C@H]1OC(=O)[C@H](C)[C@@H](O[C@H]2C[C@@](C)(OC)[C@@H](O)[C@H](C)O2)[C@H](C)[C@@H](O[C@@H]2O[C@H](C)C[C@H](N(C)C)[C@H]2O)[C@](C)(O)C[C@@H](C)CN(C(=O)CCCCCC[P+](c2cc(C)cc(C)c2)(c2cc(C)cc(C)c2)c2cc(C)cc(C)c2)[C@H](C)[C@@H](O)[C@]1(C)O.[Cl-] [Example 7, {7-[(2R,3S,4R,5R,8R,10R,11R,12S,13S,14R)-11-{[(2S,3R,4S,6R)-4-(dimethylamino)-3-hydroxy-6-methyloxan-2-yl]oxy}-2-ethyl-3,4,10-trihydroxy-13-{[(2R,4R,5S,6S)-5-hydroxy-4-methoxy-4,6-dimethyloxan-2-yl]oxy}-3,5,8,10,12,14-hexamethyl-15-oxo-1-oxa-6-azacyclopentadecan-6-yl]-7-oxoheptyl}tris(3,5-dimethylphenyl)phosphonium chloride] | 4.6%
9 | CC[C@H]1OC(=O)[C@H](C)[C@@H](O[C@H]2C[C@@](C)(OC)[C@@H](O)[C@H](C)O2)[C@H](C)[C@@H](O[C@@H]2O[C@H](C)C[C@H](N(C)C)[C@H]2O)[C@](C)(O)C[C@@H](C)CN(C(=O)CCCCCCCCCCCCC[P+](c2ccccc2)(c2ccccc2)c2cnn(C)c2)[C@H](C)[C@@H](O)[C@]1(C)O.[Cl-] [Example 1, {14-[(2R,3S,4R,5R,8R,10R,11R,12S,13S,14R)-11-{[(2S,3R,4S,6R)-4-(dimethylamino)-3-hydroxy-6-methyloxan-2-yl]oxy}-2-ethyl-3,4,10-trihydroxy-13-{[(2R,4R,5S,6S)-5-hydroxy-4-methoxy-4,6-dimethyloxan-2-yl]oxy}-3,5,8,10,12,14-hexamethyl-15-oxo-1-oxa-6-azacyclopentadecan-6-yl]-14-oxotetradecyl}(1-methyl-1H-pyrazol-4-yl)diphenylphosphonium chloride] | 4.3%
10 | CC[C@H]1OC(=O)[C@H](C)[C@@H](O[C@H]2C[C@@](C)(OC)[C@@H](O)[C@H](C)O2)[C@H](C)[C@@H](O[C@@H]2O[C@H](C)C[C@H](N(C)C)[C@H]2O)[C@](C)(O)C[C@@H](C)CN(C(=O)CCCCCCCCCCCC[P+](c2ccccc2)(c2ccccc2)c2cnn(C(C)C)c2)[C@H](C)[C@@H](O)[C@]1(C)O [Example 2, {13-[(2R,3S,4R,5R,8R,10R,11R,12S,13S,14R)-11-{[(2S,3R,4S,6R)-4-(dimethylamino)-3-hydroxy-6-methyloxan-2-yl]oxy}-2-ethyl-3,4,10-trihydroxy-13-{[(2R,4R,5S,6S)-5-hydroxy-4-methoxy-4,6-dimethyloxan-2-yl]oxy}-3,5,8,10,12,14-hexamethyl-15-oxo-1-oxa-6-azacyclopentadecan-6-yl]-13-oxotridecyl}diphenyl[1-(propan-2-yl)-1H-pyrazol-4-yl]phosphonium chloride] | 5.1%

same assay, conditions: MDA-231 cells; compound at 100 μM; IncuCyte imaging over 4-5 d

Row | SMILES | % Confluence
11 | CC[C@H]1OC(=O)[C@H](C)[C@@H](O[C@H]2C[C@@](C)(OC)[C@@H](O)[C@H](C)O2)[C@H](C)[C@@H](O[C@@H]2O[C@H](C)C[C@H](N(C)C)[C@H]2O)[C@](C)(O)C[C@@H](C)CN(C)[C@H](C)[C@@H](O)[C@]1(C)O [Azithromycin] | 17%
